Experiments:
[1] = bronchodilator; cited from earlier work
[2] = Stability tests of FPD at 40° C. and 75% Rh (tests S1-S5, HBS1-HBS3), out of […]; type: physicochemical; details: conclusion of the tests

| SMILES | Duration of action [1] | Sensitivity to moisture [2] |
| --- | --- | --- |
| C[N+]1(C)[C@@H]2C[C@@H](OC(=O)C(O)(c3cccs3)c3cccs3)C[C@H]1[C@@H]1O[C@@H]12 [tiotropium bromide] | up to 24 hours | – |
| C[N+]1(C)[C@@H]2C[C@@H](OC(=O)C(O)(c3cccs3)c3cccs3)C[C@H]1[C@@H]1O[C@@H]12 [tiotropium] | – | extremely sensitive to moisture |

— patent US20090192185A1, “MEDICAL PRODUCT” (Boehringer Ingelheim International GmbH, priority 2003, published 2009)
